Tested on: SEM cells
Assay: cell viability relative to DMSO control; higher = less cytotoxic
Conditions: 48 h
How it was run: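 In 1536-well plates, 5 μl of leukemia cells were seeded per well: 500 cells/well for NOMO1 or SEM and 1000 cells/well for P12-Ichikawa. Each line had first been adapted for at least four passages in each medium. Library compounds in DMSO were pin-dosed at 11 threefold concentrations between 47 μM and 0.79 nM, and CellTiter-Glo One luminescence was read after 48 h at 37°C. Viability is a per-plate percentage relative to DMSO wells, with cell-free wells as background.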

[1] = HPLM + 10% dialyzed FBS, 0.000781 µM
[2] = HPLM + 10% dialyzed FBS, 0.00234 µM
[3] = HPLM + 10% dialyzed FBS, 0.00702 µM
[4] = HPLM + 10% dialyzed FBS, 0.0211 µM
[5] = HPLM + 10% dialyzed FBS, 0.0632 µM
[6] = HPLM + 10% dialyzed FBS, 0.19 µM
[7] = HPLM + 10% dialyzed FBS, 0.569 µM
[8] = HPLM + 10% dialyzed FBS, 1.71 µM
[9] = HPLM + 10% dialyzed FBS, 5.12 µM
[10] = HPLM + 10% dialyzed FBS, 15.4 µM
[11] = HPLM + 10% dialyzed FBS, 46.1 µM
[12] = RPMI 5 mM glucose + 10% FBS, 0.000781 µM
[13] = RPMI 5 mM glucose + 10% FBS, 0.00234 µM
[14] = RPMI 5 mM glucose + 10% FBS, 0.00702 µM
[15] = RPMI 5 mM glucose + 10% FBS, 0.0211 µM
[16] = RPMI 5 mM glucose + 10% FBS, 0.0632 µM
[17] = RPMI 5 mM glucose + 10% FBS, 0.19 µM
[18] = RPMI 5 mM glucose + 10% FBS, 0.569 µM
[19] = RPMI 5 mM glucose + 10% FBS, 1.71 µM
[20] = RPMI 5 mM glucose + 10% FBS, 5.12 µM
[21] = RPMI 5 mM glucose + 10% FBS, 15.4 µM
[22] = RPMI 5 mM glucose + 10% FBS, 46.1 µM
[23] = RPMI 5 mM glucose + 10% dialyzed FBS, 0.000781 µM
[24] = RPMI 5 mM glucose + 10% dialyzed FBS, 0.00234 µM
[25] = RPMI 5 mM glucose + 10% dialyzed FBS, 0.00702 µM
[26] = RPMI 5 mM glucose + 10% dialyzed FBS, 0.0211 µM
[27] = RPMI 5 mM glucose + 10% dialyzed FBS, 0.0632 µM
[28] = RPMI 5 mM glucose + 10% dialyzed FBS, 0.19 µM
[29] = RPMI 5 mM glucose + 10% dialyzed FBS, 0.569 µM
[30] = RPMI 5 mM glucose + 10% dialyzed FBS, 1.71 µM
[31] = RPMI 5 mM glucose + 10% dialyzed FBS, 5.12 µM
[32] = RPMI 5 mM glucose + 10% dialyzed FBS, 15.4 µM
[33] = RPMI 5 mM glucose + 10% dialyzed FBS, 46.1 µM

## CCC(=O)OCC(=O)[C@@]1(OC(=O)CC)[C@@H](C)C[C@H]2[C@@H]3CCC4=CC(=O)C=C[C@]4(C)[C@@]3(F)[C@@H](O)C[C@@]21C
[1]
  cell viability: 78.1%
[2]
  cell viability: 99.1%
[3]
  cell viability: 93.2%
[4]
  cell viability: 98.5%
[5]
  cell viability: 100%
[6]
  cell viability: 102%
[7]
  cell viability: 84.2%
[8]
  cell viability: 90.7%
[9]
  cell viability: 91.8%
[10]
  cell viability: 70.2%
[11]
  cell viability: 61.2%
[12]
  cell viability: 104%
[13]
  cell viability: 114%
[14]
  cell viability: 116%
[15]
  cell viability: 114%
[16]
  cell viability: 116%
[17]
  cell viability: 95.6%
[18]
  cell viability: 87.3%
[19]
  cell viability: 71.5%
[20]
  cell viability: 79.4%
[21]
  cell viability: 69.9%
[22]
  cell viability: 50.3%
[23]
  cell viability: 116%
[24]
  cell viability: 115%
[25]
  cell viability: 126%
[26]
  cell viability: 112%
[27]
  cell viability: 115%
[28]
  cell viability: 88.5%
[29]
  cell viability: 92.6%
[30]
  cell viability: 75.3%
[31]
  cell viability: 69.7%
[32]
  cell viability: 65.9%
[33]
  cell viability: 48.8%

## OC[C@H](Cc1ccccc1)Nc1nc(Oc2ccc3c(c2)CCC3)nc2c1ncn2Cc1ccc(-c2ccccc2)cc1
[1]
  cell viability: 90.7%
[2]
  cell viability: 101%
[3]
  cell viability: 98.5%
[4]
  cell viability: 107%
[5]
  cell viability: 108%
[6]
  cell viability: 78.4%
[7]
  cell viability: 105%
[8]
  cell viability: 99.2%
[9]
  cell viability: 103%
[10]
  cell viability: 80.3%
[11]
  cell viability: 62.9%
[12]
  cell viability: 85.3%
[13]
  cell viability: 85.9%
[14]
  cell viability: 91.7%
[15]
  cell viability: 93.8%
[16]
  cell viability: 89.5%
[17]
  cell viability: 89.2%
[18]
  cell viability: 95%
[19]
  cell viability: 97.9%
[20]
  cell viability: 94.7%
[21]
  cell viability: 80.7%
[22]
  cell viability: 76.7%
[23]
  cell viability: 80%
[24]
  cell viability: 97.8%
[25]
  cell viability: 94.3%
[26]
  cell viability: 89.5%
[27]
  cell viability: 92.4%
[28]
  cell viability: 89.2%
[29]
  cell viability: 100%
[30]
  cell viability: 101%
[31]
  cell viability: 88.5%
[32]
  cell viability: 84.4%
[33]
  cell viability: 69.9%

## CC(=O)NC(CS)C(=O)O (stereo not drawn)
[1]
  cell viability: 71.5%
[2]
  cell viability: 71.7%
[3]
  cell viability: 75.7%
[4]
  cell viability: 63.5%
[5]
  cell viability: 82.3%
[6]
  cell viability: 62.5%
[7]
  cell viability: 66.7%
[8]
  cell viability: 84.1%
[9]
  cell viability: 90%
[10]
  cell viability: 36.1%
[11]
  cell viability: 62.3%
[12]
  cell viability: 93.5%
[13]
  cell viability: 93.7%
[14]
  cell viability: 87.8%
[15]
  cell viability: 99.1%
[16]
  cell viability: 99.8%
[17]
  cell viability: 90.8%
[18]
  cell viability: 95.4%
[19]
  cell viability: 116%
[20]
  cell viability: 114%
[21]
  cell viability: 27.7%
[22]
  cell viability: 29.2%
[23]
  cell viability: 76.7%
[24]
  cell viability: 57.8%
[25]
  cell viability: 86.2%
[26]
  cell viability: 65.5%
[27]
  cell viability: 88.4%
[28]
  cell viability: 64%
[29]
  cell viability: 83.6%
[30]
  cell viability: 78.7%
[31]
  cell viability: 108%
[32]
  cell viability: 30.9%
[33]
  cell viability: 54.9%

## O=C(Nc1cccc(Nc2ncc(Br)c(NCCc3cnc[nH]3)n2)c1)N1CCCC1
[1]
  cell viability: 77.4%
[2]
  cell viability: 78.4%
[3]
  cell viability: 79.3%
[4]
  cell viability: 72.1%
[5]
  cell viability: 67.4%
[6]
  cell viability: 47.5%
[7]
  cell viability: 32.7%
[8]
  cell viability: 17.4%
[9]
  cell viability: 9.22%
[10]
  cell viability: 5.65%
[11]
  cell viability: 1.1%
[12]
  cell viability: 87.7%
[13]
  cell viability: 77.9%
[14]
  cell viability: 80.5%
[15]
  cell viability: 75.9%
[16]
  cell viability: 69.1%
[17]
  cell viability: 41%
[18]
  cell viability: 21.1%
[19]
  cell viability: 8.73%
[20]
  cell viability: 3.21%
[21]
  cell viability: 1.59%
[22]
  cell viability: 1.07%
[23]
  cell viability: 82.5%
[24]
  cell viability: 62.9%
[25]
  cell viability: 71%
[26]
  cell viability: 64.2%
[27]
  cell viability: 66.9%
[28]
  cell viability: 38.6%
[29]
  cell viability: 26.6%
[30]
  cell viability: 12.8%
[31]
  cell viability: 7.16%
[32]
  cell viability: 3.89%
[33]
  cell viability: 1.39%

## OCc1ccc(-c2nn(Cc3ccccc3)c3ccccc23)o1
[1]
  cell viability: 115%
[2]
  cell viability: 128%
[3]
  cell viability: 124%
[4]
  cell viability: 111%
[5]
  cell viability: 113%
[6]
  cell viability: 113%
[7]
  cell viability: 117%
[8]
  cell viability: 38.1%
[9]
  cell viability: 96.1%
[10]
  cell viability: 44.6%
[11]
  cell viability: 19.3%
[12]
  cell viability: 116%
[13]
  cell viability: 110%
[14]
  cell viability: 126%
[15]
  cell viability: 100%
[16]
  cell viability: 119%
[17]
  cell viability: 107%
[18]
  cell viability: 98.1%
[19]
  cell viability: 18.2%
[20]
  cell viability: 80.9%
[21]
  cell viability: 37.4%
[22]
  cell viability: 11.2%

## c1cc(CN2CCCNCCNCCCNCC2)ccc1CN1CCCNCCNCCCNCC1
[1]
  cell viability: 83.6%
[2]
  cell viability: 85.7%
[3]
  cell viability: 86.8%
[4]
  cell viability: 20.1%
[5]
  cell viability: 94.3%
[6]
  cell viability: 101%
[7]
  cell viability: 89.8%
[8]
  cell viability: 96.9%
[9]
  cell viability: 106%
[10]
  cell viability: 116%
[11]
  cell viability: 110%
[12]
  cell viability: 70.8%
[13]
  cell viability: 93.3%
[14]
  cell viability: 83.8%
[15]
  cell viability: 13.6%
[16]
  cell viability: 85.7%
[17]
  cell viability: 92.9%
[18]
  cell viability: 87.1%
[19]
  cell viability: 90.8%
[20]
  cell viability: 94.1%
[21]
  cell viability: 91.5%
[22]
  cell viability: 89%
[23]
  cell viability: 94.1%
[24]
  cell viability: 84.4%
[25]
  cell viability: 94.2%
[26]
  cell viability: 20%
[27]
  cell viability: 117%
[28]
  cell viability: 118%
[29]
  cell viability: 106%
[30]
  cell viability: 115%
[31]
  cell viability: 102%
[32]
  cell viability: 125%
[33]
  cell viability: 119%

## Cc1cccc(C)c1OCC(=O)N[C@@H](Cc1ccccc1)[C@@H](O)C[C@H](Cc1ccccc1)NC(=O)[C@H](C(C)C)N1CCCNC1=O
[1]
  cell viability: 80.3%
[2]
  cell viability: 94.2%
[3]
  cell viability: 86.7%
[4]
  cell viability: 96.4%
[5]
  cell viability: 100%
[6]
  cell viability: 81.4%
[7]
  cell viability: 85.6%
[8]
  cell viability: 76%
[9]
  cell viability: 78.5%
[10]
  cell viability: 65.4%
[11]
  cell viability: 39%
[12]
  cell viability: 97.7%
[13]
  cell viability: 94.2%
[14]
  cell viability: 102%
[15]
  cell viability: 94.8%
[16]
  cell viability: 108%
[17]
  cell viability: 103%
[18]
  cell viability: 95.9%
[19]
  cell viability: 90.9%
[20]
  cell viability: 79.6%
[21]
  cell viability: 77.1%
[22]
  cell viability: 36.7%
[23]
  cell viability: 79.8%
[24]
  cell viability: 101%
[25]
  cell viability: 93.7%
[26]
  cell viability: 102%
[27]
  cell viability: 104%
[28]
  cell viability: 100%
[29]
  cell viability: 107%
[30]
  cell viability: 104%
[31]
  cell viability: 85.5%
[32]
  cell viability: 69.1%
[33]
  cell viability: 31.2%

## NC1=NC=C(C=C1)C2=CC=C3N=CC\4=C(N(C(=O)\C=C4)C5=CC(=CC=C5)C(F)(F)F)C3=C2
[1]
  cell viability: 67.9%
[2]
  cell viability: 65.8%
[3]
  cell viability: 53.2%
[4]
  cell viability: 46.5%
[5]
  cell viability: 37.5%
[6]
  cell viability: 24.7%
[7]
  cell viability: 28.6%
[8]
  cell viability: 24.3%
[9]
  cell viability: 13.3%
[10]
  cell viability: 8.87%
[11]
  cell viability: 14.3%
[12]
  cell viability: 84.7%
[13]
  cell viability: 81.8%
[14]
  cell viability: 74.2%
[15]
  cell viability: 57.2%
[16]
  cell viability: 42.2%
[17]
  cell viability: 27.9%
[18]
  cell viability: 21.8%
[19]
  cell viability: 24.8%
[20]
  cell viability: 8.57%
[21]
  cell viability: 13.8%
[22]
  cell viability: 7.9%
[23]
  cell viability: 70.5%
[24]
  cell viability: 66.7%
[25]
  cell viability: 46.2%
[26]
  cell viability: 44.4%
[27]
  cell viability: 34.8%
[28]
  cell viability: 23.6%
[29]
  cell viability: 21.6%
[30]
  cell viability: 22.5%
[31]
  cell viability: 5.98%
[32]
  cell viability: 5.05%
[33]
  cell viability: 8.96%

Reference: the supplement of paper PMC11451515
